Series [1] addresses hFKBP12 (Homo sapiens, UniProt P62942). Description: protease-coupled PPIase assay, hFKBP12. It counts as biochemical. To be noted: 20 nM hFKBP12, substrate Suc-Ala-Phe-Pro-Phe-pNA, chymotrypsin, pH 7.8, 6° C.; read-out: IC50 class, Target T-2 (hFKBP12).
The target in series [2] is hCyp18 (Homo sapiens, UniProt P62937). Description: protease-coupled PPIase assay, hCyp18. The class given is biochemical. The following applies: 10 nM hCyp18, substrate Suc-Ala-Phe-Pro-Phe-pNA, chymotrypsin, pH 7.8, 6° C.; read-out: IC50 class, Target T-3 (hCyp18).
The target of series [3] is LpCyp18 (Legionella pneumophila, UniProt Q5ZRZ4). Description: biochemical. To be noted: IC50 class, Target T-4 (LpCyp18).
Series [4] concerns the target T1, Trypsin (UniProt P00760).
T1 sequence (P00760 1-246): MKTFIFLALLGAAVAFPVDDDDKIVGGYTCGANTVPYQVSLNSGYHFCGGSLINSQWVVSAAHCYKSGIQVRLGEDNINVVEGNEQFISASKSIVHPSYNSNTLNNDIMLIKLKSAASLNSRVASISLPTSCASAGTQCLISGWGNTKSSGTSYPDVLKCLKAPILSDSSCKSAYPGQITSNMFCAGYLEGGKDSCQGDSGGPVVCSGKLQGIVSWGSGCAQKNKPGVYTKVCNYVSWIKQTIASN
Description: trypsin assay. The class given is biochemical. The following applies: 0.1 μg/ml trypsin, 120 μM Ac-Ala-Ala-Ser(PO3H2)-Pro-Arg-pNA, pH 7.8, 30° C., 30 min incubation; read-out: IC50 class, Target T-7 (Trypsin). As for the experimental part:
(§1) In order to investigate the impact of some of the inventive compounds on the activity of key proteases the following assay was performed: Protease activities were measured spectrophotometrically at 30° C. according to Schomburg and Salzmann (Schomburg, B.; Salzmann M. GBF: Enzyme Handbook. Springer Verlag, Berlin Heidelberg, 1991) and Bergmeyer et al. (Bergmeyer, H. U.; Bergmeyer, J.; Graβl, M. Methods of Enzymatic Analysis, Vol. V Enzymes 3: Peptides, Proteinases and Their Inhibitors. pp 55-371, VCH, Weinheim, 1988). The release of 4-nitroaniline was determined at 390 nm with a Spectramax Plus UV/Vis spectrophotometer (Molecular Devices). The cathepsin B assay was performed in a reaction mixture containing 0.2 μg/ml cathepsin B, 2 mM Z-Arg-Arg-pNA in 88 mM KH2PO4, 12 mM Na2HPO4, 1.33 mM EDTA, 0.03% Brij 35 (pH 5.8). The trypsin assay was carried out in a reaction mixture containing 0.1 μg/ml trypsin and 120 μM Ac-Ala-Ala-Ser(PO3H2)-Pro-Arg-pNA in 35 mM HEPES (pH 7.8) and the papain assay in a mixture consisting of 16 μg/ml papain and 2 mM Bz-DL-Arg-pNA in 10 mM Na2HPO4, 2 mM L-Cys, 5 mM EDTA (pH 6.5). In general, reactions were started by addition of peptide substrate after a 30 min incubation of 1-100 μM effector with given concentrations of enzyme.

Series [5] has as its target cathepsin B (Homo sapiens, UniProt P07858). Description: cathepsin B assay. The class given is biochemical. To be noted: 0.2 μg/ml cathepsin B, 2 mM Z-Arg-Arg-pNA, pH 5.8, 30° C., 30 min incubation; read-out: IC50 class, Target T-8 (Cathepsin). As for the experimental part:
as §1

Series [6] can be described thus: WST-1 cytotoxicity assay, HeLa. It counts as cell-based. The following applies: human, HeLa cells (cervix carcinoma); WST-1, 48 h incubation; read-out: EC50 class, cytotoxic effect, CL-2 (HeLa). A digest of the protocol:
(§2)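 Human tumour cell lines in culture were exposed to compounds at 37° C for 48 h, then given WST-1. Viability was read as formazan absorbance at (450 vs. 620) nm.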
(Formazan colour is commonly taken as a measure of viable cells.)

Series [7] is described as follows: WST-1 cytotoxicity assay, PC-3. The class given is cell-based. To be noted: human, PC-3 cells (prostate carcinoma); WST-1, 48 h incubation; read-out: EC50 class, cytotoxic effect, CL-3 (PC-3). A digest of the protocol:
as §2

Series [8] in a line: WST-1 cytotoxicity assay, Caco-2. The class given is cell-based. The following applies: human, Caco-2 cells (colon adenocarcinoma); WST-1, 48 h incubation; read-out: EC50 class, cytotoxic effect, CL-4 (Caco-2). As for the experimental part:
For this cytotoxic evaluation of the compounds the commercial available WST-1 assay (Roche) was used according to the manufacturer's instructions. The assay is based on the cleavage of the tetrazolium salt WST-1 by mitochondrial dehydrogenases found in viable cells. In general compounds were added to cells cultured in 96-well plates at 37° C. After 48 h of incubation 10 μl of WST-1 solution was added. The formazan dye was analyzed with an ELISA plate reader at (450 vs. 620) nm. CL-1: human acute myeloid leukemia, HL-60 CL-2: human cervix carcinoma, HeLa CL-3: human prostate carcinoma, PC-3 CL-4: human colon adenocarcinoma, Caco-2 CL-5: human breast adenocarcinoma, MCF-7

A short description of series [9]: WST-1 cytotoxicity assay, MCF-7. The class given is cell-based. The following applies: human, MCF-7 cells (breast adenocarcinoma); WST-1, 48 h incubation; read-out: EC50 class, cytotoxic effect, CL-5 (MCF-7). A digest of the protocol: as §2
The subject of series [10] is HL-60 cells. Description: FACS measurements and TUNEL assay (Apo-Direct kit). The class given is cell-based, human. To be noted: FIG. 2. An excerpt: Enari M. Sakahira H. Yokoyama H. Okawa K. Iwamatsu A. Nagata S. A caspase-activated DNase that degrades DNA during apoptosis, and its inhibitor ICAD [erratum appears in Nature 1998 May 28; 393(6683):396.]. Nature. 391:43-50, 1998 • Darzynkiewicz Z. Juan G. Li X. Gorczyca W. Murakami T. Traganos F. Cytometry in cell necrobiology: analysis of apoptosis and accidental cell death (necrosis). Cytometry. 27:1-20, 1997
Apoptotic HL-60 cells were detected by FACS analysis of FITC-dUTP-labelled DNA breaks using the Apo-Direct kit (BD-Pharmingen) according to the manufacturer's protocol.

The subject of series [11] is Hela cells. Description: DAPI staining. To be noted: FIG. 3. It counts as cell-based, human. As for the experimental part:
Hela cells grown on poly-L-Lys-coated coverslips were fixed with 2% paraformaldehyde/MeOH.
Cellular DNA was stained with DAPI staining buffer (100 mM Tris (pH 7.4), 150 mM NaCl, 1 mM CaCl2, 0.5 mM MgCl2, 0.1% nonidet P-40, 1 μg/ml DAPI (Molecular Probes)). All the steps were performed at room temperature, and cells were washed two times with PBS after each step. Finally, cells were mounted in 80% glycerol/PBS.

The test system of series [12] is tumor cell lines (HL-60, HeLa, PC-3, Caco-2, MCF-7). The experiment in a line: WST-1 cytotoxicity assay, tumor cell lines (panel statement). It counts as cell-based, human. To be noted: WST-1, 48 h; table 4. A digest of the protocol:
as §2

The results in this text go back to patent publication US20110065760A1, “COMPOUNDS FOR THE INHIBITION OF ROTAMASES AND USE THEREOF” (Jerini AG, priority 2002, published 2011).

SMILES strings stand for the structures. Some results are limits rather than exact numbers.

Broadly, the IC50 is the midpoint of a concentration-inhibition curve. Broadly, the EC50 is the concentration needed to bring the measured effect to its halfway point.

Sequence of hFKBP12 (P62942 whole entry): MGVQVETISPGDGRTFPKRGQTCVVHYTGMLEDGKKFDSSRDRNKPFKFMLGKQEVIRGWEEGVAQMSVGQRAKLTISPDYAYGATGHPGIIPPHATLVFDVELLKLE
Sequence of hCyp18 (P62937 whole entry): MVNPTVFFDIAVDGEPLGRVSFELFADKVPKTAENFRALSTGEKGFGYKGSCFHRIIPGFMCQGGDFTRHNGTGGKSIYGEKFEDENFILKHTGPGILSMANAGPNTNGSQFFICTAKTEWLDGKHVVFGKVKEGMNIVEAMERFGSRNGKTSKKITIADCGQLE
Sequence of LpCyp18 (Q5ZRZ4 1-164): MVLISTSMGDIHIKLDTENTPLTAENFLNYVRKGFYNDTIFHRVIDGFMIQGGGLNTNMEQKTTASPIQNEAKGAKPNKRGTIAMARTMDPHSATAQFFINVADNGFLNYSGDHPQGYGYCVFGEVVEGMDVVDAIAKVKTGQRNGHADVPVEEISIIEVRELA

For `Cc1c(Cl)cc(NC(=O)NC(C)(C)CC(C)(C)C)c(O)c1Cl` [Compound 102], the 50% inhibitory concentration (IC50) is > 100 µM in [1]; 10 to 50 µM in series [2]; 10 to 50 µM in [3]; 10 to 50 µM in series [4]; 50 to 100 µM in [5]. For the same compound, the EC50 at 48 h in series [6], in series [7], in [8] and in series [9] was < 10 µM throughout. Moreover, the “induction of apoptosis (FACS analysis of FITC-dUTP-labelled DNA breaks)” value in [10] is “induce apoptosis”. Further, the “induction of apoptosis (DAPI staining, fluorescence microscopy)” value in [11] is “induce apoptosis”. In series [12], the “cytotoxic effect on the tumor cell lines tested” value was “particular relevance”.
